In patent publication US20090047246A1, “NOVEL INHIBITORS OF HEPATITIS C VIRUS REPLICATION” (InterMune, Inc., priority 2007, published 2009) one finds IC50 data, which are given here for 65 molecules.

For orientation: IC50 means the concentration that inhibits the measured activity by half.

SMILES strings stand for the structures.

T1 sequence (P26663 1027-1657): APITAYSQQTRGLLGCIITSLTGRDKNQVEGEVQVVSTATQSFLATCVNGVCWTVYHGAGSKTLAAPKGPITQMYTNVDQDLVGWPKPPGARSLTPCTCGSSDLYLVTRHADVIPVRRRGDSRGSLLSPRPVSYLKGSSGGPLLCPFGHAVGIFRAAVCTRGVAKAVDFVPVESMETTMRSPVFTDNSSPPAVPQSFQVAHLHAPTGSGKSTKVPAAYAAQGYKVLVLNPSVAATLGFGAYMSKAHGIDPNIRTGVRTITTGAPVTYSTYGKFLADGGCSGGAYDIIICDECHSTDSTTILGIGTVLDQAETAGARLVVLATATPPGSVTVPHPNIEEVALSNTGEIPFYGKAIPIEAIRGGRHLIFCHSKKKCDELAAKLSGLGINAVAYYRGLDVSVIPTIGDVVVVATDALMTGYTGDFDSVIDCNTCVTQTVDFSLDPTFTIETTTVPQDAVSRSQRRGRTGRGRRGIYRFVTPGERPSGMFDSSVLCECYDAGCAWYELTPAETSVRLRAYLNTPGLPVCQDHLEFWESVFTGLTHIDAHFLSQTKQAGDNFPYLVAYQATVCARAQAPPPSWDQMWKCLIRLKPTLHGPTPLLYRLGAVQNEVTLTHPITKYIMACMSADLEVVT

The first test addresses T1, HCV NS3 helicase (Hepatitis C virus genotype 1b, UniProt P26663).
T1 construct: full-length NS3 (1-631), purified at Array BioPharma
As to the kind of experiment: HCV Helicase Prompt FRET Assay (Example A). It is filed as biochemical. The following applies: 2nd test; read-out: IC50 Activity (on 2nd test). The gist of the method:
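Initial unwinding rates, monitored as FAM fluorescence gain (ex 485, em 535) over ~30 min at room temperature, gave IC50 via 4- or 5-parameter logistic fits. Reactions: 50 nM quenched duplex, 250 nM capture strand, 300 μM ATP, 5–6 nM NS3 1-631 after 5 min compound preincubation, MOPS pH 7.0 buffer, 2% DMSO.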
Consider `COC(=O)C(c1ccccc1)c1cn(-c2ccc([N+](=O)[O-])cc2C)c2ccc(Br)cc12` (stereo not drawn) [Example 387], for which the IC50 was over 50 µM.

Staying with this test, now noted: HCV NS3 helicase; tables do not say whether Example A or Example B assay; read-out: IC50 Activity.
For `Cc1ccccc1-c1ccc(Cc2[nH]c3ccccc3c2CC(=O)O)cc1` [Example 283], the IC50 lay within 10 to 50 µM.
Consider `O=C(O)Cc1cn(Cc2csc3ccc(Cl)cc23)c2cc(OCc3ccccc3)c(OCc3ccccc3)cc12` [Example 358], for which the IC50 was under 10 µM.
In the case of `Cc1ccc(-c2ccc(Cc3[nH]c4ccccc4c3CC(=O)O)cc2)cc1C` [Example 282], the IC50 is under 10 µM.
On the same count and under the same terms, then `CC(C)c1ccc(Cn2cc(C(Cc3ccccc3)C(=O)O)c3ccccc32)cc1` (stereo not drawn) [Example 410], with under 10 µM.
On to `Cc1ccccc1CN(C)c1ccc(-n2cc(CC(=O)O)c3ccccc32)cc1` [Example 181], for which the IC50 was under 10 µM.
Turning to `CC(C)c1ccc(Cn2c(C(=O)NC3CC3)c(CC(=O)O)c3cc(Br)ccc32)cc1` [Example 434], the IC50 is 10 to 50 µM.
Consider `O=C(O)Cc1c(C(=O)c2ccc(-c3cccc(CO)c3)cc2)[nH]c2ccccc12` [Example 264], for which the IC50 was 10 to 50 µM.
For the molecule `O=C(O)Cc1c(C(=O)c2ccc(-c3cccc(Cl)c3Cl)cc2)[nH]c2ccccc12` [Example 274], the IC50 is under 10 µM.
Still for that read-out and setting: the value for `COc1ccc(OC)c(Oc2ccc(Cn3cc(CC(=O)O)c4ccccc43)cc2)c1` [Example 510] was under 10 µM; that for `Cc1cc([N+](=O)[O-])ccc1-n1c2ccc(Br)cc2c2c(C(=O)O)cccc21` [Example 471] was 10 to 50 µM.
Consider `COC(=O)CC1CN(c2ccc([N+](=O)[O-])cc2C)c2ccc(Br)cc21` (stereo not drawn) [Example 393], for which the IC50 fell in the range of 10 to 50 µM.
Same read-out and setting: the value for `CCOC(=O)Cc1cn(Cc2cccc(N(C)c3cc(Cl)ccc3Cl)c2)c2ccccc12` [Example 548] was under 10 µM; that for `O=C(O)Cc1c(Cc2cccc(-c3ccc(Cl)c(Cl)c3)c2)oc2ccccc12` [Example 309] was under 10 µM; that for `O=C(O)C(Cc1csc2ccc(Cl)cc12)c1cn(Cc2csc3ccc(Cl)cc23)c2cc(Br)ccc12` (stereo not drawn) [Example 360] was under 10 µM.
Turning to `O=C(O)Cc1c(C(=O)c2ccc(-c3ccccc3C(F)(F)F)cc2)[nH]c2ccccc12` [Example 269], the IC50 lay in the range of 10 to 50 µM.
Regarding `CN(Cc1ccccc1)c1ccc(-n2c(C(=O)c3ccc(-c4ccc(Cl)c(Cl)c4)cc3)c(CC(=O)O)c3ccccc32)cc1` [Example 738], the IC50 is 10 to 50 µM.
The same measure, in the same setting: then `CC(C)c1ccc(Cn2c(C(=O)NCc3ccccc3)c(CC(=O)O)c3cc(Br)ccc32)cc1` [Example 440], with 10 to 50 µM.
In the case of `O=C(O)Cc1c(Cc2csc3ccc(Cl)cc23)n(-c2ccc([N+](=O)[O-])cc2)c2cc(OCc3ccccc3)ccc12` [Example 372], the IC50 is under 10 µM.
Regarding `O=C(O)C(Cc1csc2ccc(Cl)cc12)c1cn(Cc2csc3ccc(Cl)cc23)c2cc(-c3ccco3)ccc12` (stereo not drawn) [Example 361], the IC50 was under 10 µM.
As to `Cc1cc([N+](=O)[O-])ccc1-n1cc(C(Cc2ccccc2)C(=O)O)c2cc(Br)ccc21` (stereo not drawn) [Example 398], the IC50 was under 10 µM.
`O=C(O)Cc1c(C(=O)c2cccc(-c3ccc(Cl)c(Cl)c3)c2)[nH]c2ccccc12` [Example 240]: the IC50 is under 10 µM.
Turning to `O=C(O)Cc1c(C(=O)c2ccc(-c3ccc(Cl)c(Cl)c3)cc2)[nH]c2ccccc12` [Example 257], the IC50 is under 10 µM.
Same read-out and setting: the value for `O=C(O)Cc1c(C(=O)c2ccc(-c3ccccc3)cc2)oc2ccccc12` [Example 223] was 10 to 50 µM; that for `CC(C)Oc1ccc2scc(Cn3cc(CC(=O)O)c4cc(Br)ccc43)c2c1` [Example 141] was 10 to 50 µM.
`CCOC(=O)Cc1cn(Cc2ccc(Oc3cccc(F)c3)cc2)c2cc(-c3cccc(OC(C)=O)c3)ccc12` [Example 603]: the IC50 is over 50 µM.
On the same count and under the same terms, then `O=C(O)Cc1cn(-c2ccc(NC(=O)Cc3ccsc3)cc2)c2ccccc12` [Example 164], with 10 to 50 µM; and `O=C(O)Cc1cn(Cc2cccc(Oc3ccc(Cl)cc3)c2)c2ccccc12` [Example 477], with under 10 µM; and `O=C(O)Cc1c(C(=O)c2cccc(-c3cccc(Cl)c3Cl)c2)oc2ccccc12` [Example 241], with under 10 µM.
For the molecule `O=C(O)Cc1cn(Cc2cccc(Oc3ccc(F)cc3)c2)c2ccccc12` [Example 474], the IC50 is under 10 µM.
Still for that read-out and setting: then `COc1cc2c(cc1OCc1ccccc1)c(CC(=O)O)cn2Cc1csc2ccc(Cl)cc12` [Example 346], with 10 to 50 µM; and `CC(c1nnn[nH]1)c1cn(Cc2csc3ccc(Cl)cc23)c2ccccc12` (stereo not drawn) [Example 215], with 10 to 50 µM; and `O=C(O)Cc1c(C(=O)c2ccc(-c3ccc(Cl)cc3Cl)cc2)[nH]c2ccccc12` [Example 272], with under 10 µM.
On to `CN(c1cccc(Cn2cc(CC(=O)O)c3ccccc32)c1)c1cc(F)ccc1F` [Example 535], for which the IC50 fell in the range of 10 to 50 µM.
On the same count and under the same terms, the value for `O=C(O)Cc1c(C(=O)c2ccc(-c3ccc(C(=O)O)cc3)cc2)[nH]c2ccccc12` [Example 266] was 10 to 50 µM; that for `O=C(O)Cc1cn(Cc2ccc(Oc3cccc(F)c3F)cc2)c2ccccc12` [Example 584] was under 10 µM.
For `Cc1oncc1C(=O)Nc1ccc(-n2cc(CC(=O)O)c3ccccc32)cc1` [Example 163], the IC50 was in the range of 10 to 50 µM.
Turning to `O=C(Cc1cn(Cc2csc3ccc(Cl)cc23)c2ccccc12)NS(=O)(=O)c1ccccc1` [Example 199], the IC50 lay within 10 to 50 µM.
On to `O=C(Cc1cn(Cc2cccc(OCc3ccccc3)c2)c2ccc(OCc3ccccc3)cc12)NS(=O)(=O)C1CC1` [Example 194], for which the IC50 was under 10 µM.
Turning to `COC(=O)C(c1ccccc1)c1cn(-c2ccc([N+](=O)[O-])cc2C)c2ccc(Br)cc12` (stereo not drawn) [Example 387], the IC50 is 10 to 50 µM.
Still for that read-out and setting: the value for `CC(C)c1ccc(Cn2c(C(=O)NCc3cccc(Cl)c3)c(CC(=O)O)c3ccccc32)cc1` [Example 451] was under 10 µM; that for `O=C(O)Cc1cn(Cc2cccc(-c3cccnc3)c2)c2ccc(OCc3ccccc3)cc12` [Example 130] was 10 to 50 µM.
For the molecule `O=C(O)Cc1cn(Cc2cccc(Br)c2)c2ccc(OCc3ccccc3)cc12` [Example 113], the IC50 was in the range of 10 to 50 µM.
Turning to `O=C(O)Cc1cn(Cc2csc3ccc(F)cc23)c2ccc(Br)cc12` [Example 132], the IC50 lay in the range of 10 to 50 µM.
`CC(=O)N(C)c1ccc(-n2cc(CC(=O)O)c3ccccc32)c(C)c1` [Example 160]: the IC50 was in the range of 10 to 50 µM.

Staying with this test, now noted: Table 21, compounds made using Scheme 28; read-out: IC50 Activity.
As for `CN(c1ccc(Cn2cc(CC(=O)O)c3ccccc32)cc1)c1cc(C(F)(F)F)cc(C(F)(F)F)c1` [Example 582], the IC50 is under 10 µM.
In the case of `CN(c1cccc(Cn2cc(CC(=O)O)c3ccccc32)c1)c1ccc(Cl)cc1Cl` [Example 573], the IC50 was under 10 µM.
On the same count and under the same terms, the value for `COc1ccccc1N(C)c1ccc(Cn2cc(CC(=O)O)c3ccccc32)cc1` [Example 562] was 10 to 50 µM; that for `COc1ccc(OC)c(N(C)c2ccc(Cn3cc(CC(=O)O)c4ccccc43)cc2)c1` [Example 578] was under 10 µM.
`CN(c1ccc(Cn2cc(CC(=O)O)c3ccccc32)cc1)c1cccc(Cl)c1Cl` [Example 572]: the IC50 was under 10 µM.

The test is the same for the next values; noted with them: Table 23, compounds made using Scheme 30; read-out: IC50 Activity.
In the case of `O=C(O)Cc1cn(Cc2ccc(Oc3ccc(C(F)(F)F)cc3C(F)(F)F)cc2)c2ccccc12` [Example 591], the IC50 was under 10 µM.

Staying with this test, now noted: Table 31, compounds made using Schemes 38-45; read-out: IC50 Activity.
In the case of `Nc1cc(-c2ccc3c(CC(=O)O)cn(Cc4csc5ccc(Cl)cc45)c3c2)cc(N)n1` [Example 638], the IC50 was in the range of 10 to 50 µM.

The test is the same for the next values; noted with them: Table 32, compounds made using Schemes 46-49; read-out: IC50 Activity.
Regarding `N#Cc1ccc2c(CC(=O)O)cn(Cc3csc4ccc(Cl)cc34)c2c1` [Example 663], the IC50 was 10 to 50 µM.

Still in this test, the particulars now being: Table 34, compounds made using Schemes 51-52; read-out: IC50 Activity.
As to `Nc1cc(-c2ccc3c(CC(=O)NS(=O)(=O)C4CC4)cn(Cc4csc5ccc(Cl)cc45)c3c2)cc([N+](=O)[O-])c1` [Example 687], the IC50 was under 10 µM.
The same measure, in the same setting: the value for `Cc1cc([N+](=O)[O-])ccc1-n1cc(C(NC(=O)C2CCNCC2)C(=O)O)c2ccccc21` (stereo not drawn) [Example 674] was over 50 µM.
Consider `COC(=O)C(=O)c1cn(Cc2csc3ccc(Cl)cc23)c2cc(N3CCCC(OC(C)=O)C3)ccc12` (stereo not drawn) [Example 696], for which the IC50 is 10 to 50 µM.
For `CC(C)c1ccc(Cn2cc(CC(=O)NO)c3ccccc32)cc1` [Example 677], the IC50 lay in the range of 10 to 50 µM.

The test is the same for the next values; noted with them: Table 35, compounds made using Scheme 53; read-out: IC50 Activity.
For `CCOC(=O)Cc1cn(Cc2csc3ccc(F)cc23)c2cc(-c3cc([N+](=O)[O-])cc([N+](=O)[O-])c3)ccc12` [Example 792], the IC50 is over 50 µM.
On to `CCOC(=O)Cc1cn(Cc2cccc3sc(Cl)nc23)c2cc(-c3cc([N+](=O)[O-])cc([N+](=O)[O-])c3)ccc12` [Example 793], for which the IC50 was 10 to 50 µM.
`Nc1cc(N)cc(-c2ccc3c(CC(=O)O)cn(Cc4csc5ccc(F)cc45)c3c2)c1` [Example 705]: the IC50 is under 10 µM.

Still in this test, the particulars now being: Table 36, compounds made using Scheme 54; read-out: IC50 Activity.
In the case of `Nc1cc(N)cc(-c2ccc3c(CC(=O)O)cn(Cc4csc5c(Cl)cc(F)cc45)c3c2)c1` [Example 726], the IC50 is under 10 µM.
In the case of `Nc1cc(N)cc(-c2ccc3c(CC(=O)O)cn(Cc4csc5ccc(OC(F)(F)F)cc45)c3c2)c1` [Example 719], the IC50 lay within 10 to 50 µM.
On to `N#Cc1ccc2c(CC(=O)O)cn(Cc3csc4ccc(Cl)cc34)c2c1` [Example 789], for which the IC50 lay in the range of 10 to 50 µM.
Turning to `COc1cc(Cl)cc2c(Cn3cc(CC(=O)O)c4ccc(-c5cc(N)cc(N)c5)cc43)csc12` [Example 722], the IC50 lay in the range of 10 to 50 µM.

The same test, now with this note: Table 37, compounds made using Scheme 55; read-out: IC50 Activity.
Take `Cc1ccc(-c2ccc3c(CC(=O)O)cn(Cc4csc5ccc(Cl)cc45)c3c2)cc1` [Example 751]: the IC50 is over 50 µM.
Turning to `N#Cc1ccccc1-c1ccc2c(CC(=O)O)cn(Cc3csc4ccc(Cl)cc34)c2c1` [Example 755], the IC50 was over 50 µM.
